Patent US20260240841A1, “COMBINATION OF HPK1 INHIBITOR AND AXL INHIBITOR IN CANCER THERAPY” (BOARD OF REGENTS, THE UNIVERSITY OF TEXAS SYSTEM, priority 2023, published 2026)

Legend:
pancreatic cancer = conditions: Ludwig et al.; cited from earlier work
mouse PDAC models = conditions: cited from earlier work
[1] = tested on: orthotopic KPC-Luc pancreatic tumors; experiment: Orthotopic KPC-Luc pancreatic cancer model treated with MRTX1133; assay type: in vivo, mouse; conditions: for tumor weight: 25 mg/kg twice daily for ten days, weighed seven days after completion, FIG. 10
Description: (§1) For sub-cutaneous xenograft studies, the C57BL/6 female or male mice aged 5-7 weeks (Jackson Labs) were used. 1×10^6 KPC-Luc cells or 2×10^5 B16F10 melanoma cells were injected into the dorsal region of the wild type (WT) or HPK1-mice. Animals were imaged using the IVIS Spectrum, PerkinElmer and Bruker ICON MRI at 3 and 10 days after successful implantation of KPC-Luc cells. Only mice with similar tumor volume (~150 mm^3) were used for treatment studies. These experiments were randomized. […] Mice were euthanized for tumor collection once tumor volume was approximately ~1000 mm^3. For orthotopic studies, 0.5×10^6 KPC-Luc cells were implanted orthotopically into WT C57BL/6 mice and/or HPK1^−/− mice pancreas. Bioluminescence imaging with the IVIS Spectrum (Perkin Elmer) was performed after intraperitoneal injection of 1.5 mg of D-luciferin (PerkinElmer). After image acquisition, the Living Image 4.7 software (PerkinElmer) was used for analysis of images. Therapy was initiated at day 10 post tumor cell injection. All mice were sacrificed on Day 35 for survival study or otherwise labeled in the Figures.
(§2) To examine the effects of pharmacological inhibition of Axl, Kras, and HPK1 with or without Anti-41BB/CD137 on tumor growth, Axl inhibitor (Bemcentinib MedChem Express) was dosed at 10 mg/kg/day for intraperitoneal injection (IP). HPK1-IN-7 (HPK1 inhibitor #1 MedChem Express) was dosed at 20 mg/kg/day orally, GNE1858 (HPK1 inhibitor #2 MedChem Express) was dosed at 10 mg/kg/day orally. KRAS^G12D inhibitor (MRTX1133, MedChem Express) was dosed at 25 mg/Kg twice daily for intraperitoneal injection. Anti-41BB (clone LOB12.3, BioXCell, BE0169) antibody and its corresponding isotype IgG controls were intraperitoneally administered at 200 μg per injection for three times per week. The duration of treatment was 10 days. Tumor size was measured every other day using the methods as previously described.
To further evaluate the association, tumor size was determined in mice treated with MRTX1133. […]

KPC-Luc cells = experiment: KPC-Luc tumor growth in WT C57BL/6 mice under Axl inhibitor, HPK1 inhibitor, CD137 antibody and combinations; assay type: in vivo, mouse; conditions: treated 10 days
Description: as §1
To examine the effects of pharmacological inhibition of Axl, Kras, and HPK1 with or without Anti-41BB/CD137 on tumor growth, Axl inhibitor (Bemcentinib MedChem Express) was dosed at 10 mg/kg/day for intraperitoneal injection (IP). HPK1-IN-7 (HPK1 inhibitor #1 MedChem Express) was dosed at 20 mg/kg/day orally, GNE1858 (HPK1 inhibitor #2 MedChem Express) was dosed at 10 mg/kg/day orally. […] Tumor size was measured every other day using the methods as previously described.
Tumors were grown in wild-type mice, and treatment was performed as described above. Following treatment, tumors were excised from the mice and both tumor volume and tumor weight were measured.
To further study the synergistic effects of the combination therapy, tumors were grown in wild-type mice and treatment was performed as described above. Following treatment, tumors were excised from the mice and tumor weight was evaluated. […]

[2] = tested on: orthotopic xenograft tumors of KPC-Luc cells; experiment: IVIS bioluminescence imaging of orthotopic KPC-Luc xenograft tumors treated with Axl inhibitor; assay type: in vivo, mouse; conditions: imaged 17 days post implantation with KPC-Luc cells
Description: as §1, with “All mice were sacrificed on Day 35 for survival study or otherwise labeled in the Figures.” left out
To examine the effects of pharmacological inhibition of Axl, Kras, and HPK1 with or without Anti-41BB/CD137 on tumor growth, Axl inhibitor (Bemcentinib MedChem Express) was dosed at 10 mg/kg/day for intraperitoneal injection (IP). […] Tumor size was measured every other day using the methods as previously described. […]

B16F10 melanoma cells = experiment: Subcutaneous B16F10 melanoma xenograft model; assay type: in vivo, mouse; conditions: for tumor weight: FIG. 12B
Description: as §1, §2
To evaluate the therapeutic effect of an Axl inhibitor, bemcentinib, on melanoma, subcutaneous tumors of subcutaneous melanoma xenograft model of B16F10 cells in HPK1 knockout mice and wild type mice were treated with 10 mg/kg/day bemcentinib by intraperitoneal injection (IP) twice daily for 10 days. The tumor volumes (FIG. 12A) and tumor weight (FIG. 12B) were measured at 12 days after the completion of treatment.
Subcutaneous melanoma xenograft tumors of B16F10 cells were grown in wild-type mice, and treatment was performed as described above. Following treatment, tumors were excised from the mice at day 12 after completion of therapy and both tumor volume and tumor weight were measured.

[3] = tested on: orthotopic xenograft tumors of KPC-Luc cells; experiment: Multicolor flow cytometry of intra-tumoral hematopoietic cells from KPC-Luc xenograft tumors; assay type: in vivo, mouse
Description: For flow cytometry studies, orthotopic xenograft tumors of KPC-Luc cells from the HPK1−/− or wild type control were digested in digestion buffer (1 mg/mL collagenase IV and 10 U/mL DNase I in Dulbecco's Modified Eagle Medium (DMEM)) at 37° C. for 30 minutes. After thorough mixing, the samples were pushed through a 70-μm cell strainer and washed with 40 ml DMEM without fetal bovine serum (FBS), The digested cells were re-suspended in 37 % Percoll and overlaid on top of the same volume of 70% Percoll. After centrifugation at 800 g for 20 minutes with break off, the lymphocytes were isolated from the interface and rinsed with PBS. The cells were first stained by Zombie UV, followed by incubation in a cocktail comprising the following antibodies in cell staining buffer: anti-CD45, anti-CD38, anti-B220, anti-CD11b, anti-F4/80, anti-Ly6C, anti-Ly6G, anti-CD4, anti-IA/IE, and anti-CD8g. After washing, the stained cells were submitted for multiple-color flow cytometry. The results were processed using FlowJo software.
Following tumor xenograft imaging, the tumors were excised from the mice and subsequently prepared for flow cytometry as described above.

Question: With `Nc1nc(Nc2ccc3c(c2)CC[C@@H](N2CCCC2)CC3)nn1-c1cc2c(nn1)-c1ccccc1CCC2` [BGB324] as the molecule, how does the “aggressiveness of pancreatic cancer” value (pancreatic cancer) read?
Answer: inhibits the aggressiveness of pancreatic cancer

Question: And the “sensitivity of pancreatic cancer cells to gemcitabine” value (pancreatic cancer)?
Answer: sensitizes pancreatic cancer cells to gemcitabine

Question: What about the tumor immune microenvironment (pancreatic cancer) of the same molecule?
Answer: induces an immune stimulatory microenvironment

Question: With `C#Cc1c(F)ccc2cc(O)cc(-c3ncc4c(N5CC6CCC(C5)N6)nc(OC[C@@]56CCCN5C[C@H](F)C6)nc4c3F)c12` [MRTX1133] as the molecule, how does the tumor growth (mouse PDAC models) read?
Answer: shrink tumors or halt the growth

Question: And the tumor weight ([1]; HPK1 knockout mice)?
Answer: significant decrease in tumor weight

Question: What about the tumor weight ([1]; wild type mice) of the same molecule?
Answer: slight decrease in tumor weight

Question: What about the “response of tumor size shown by luminescence” value ([1]; wild-type mice versus HPK1 knockout mice, 25 mg/kg IP twice daily, imaged 7 days after treatment, FIG. 9) of the same molecule?
Answer: less responsive than the HPK1 knockout mice

Question: Which tumor volume (KPC-Luc cells; measured 15 days after completion of treatment, FIG. 6A) does the source give for `Nc1nc(Nc2ccc3c(c2)CC[C@@H](N2CCCC2)CC3)nn1-c1cc2c(nn1)-c1ccccc1CCC2` [bemcentinib] here?
Answer: did not significantly decrease

Question: And the “tumor weight compared to control (in words)” value (KPC-Luc cells; weighed 12 days after completion, control about 0.6 grams, FIG. 7)?
Answer: only minimally reduced

Question: And the “tumor weight compared to control” value (KPC-Luc cells; weighed 15 days after completion of treatment, FIG. 6B)?
Answer: reduced the tumor weight to a small degree

Question: What about the “tumor growth (luminescence)” value ([2]; HPK1 knockout mice, FIG. 3B) of the same molecule?
Answer: inhibited the growth of the tumor

Question: What about the “tumor volume (luminescence)” value ([2]; wild type mice, FIG. 3A) of the same molecule?
Answer: little to no decrease in the tumor volume

Question: And the tumor volume (B16F10 melanoma cells; HPK1 knockout mice, 10 mg/kg/day IP for 10 days, 12 days after completion, FIG. 12A)?
Answer: significant decrease

Question: And the tumor weight (B16F10 melanoma cells; HPK1 knockout mice, 10 mg/kg/day IP for 10 days, 12 days after completion)?
Answer: significant decrease

Question: And the tumor volume (B16F10 melanoma cells; wild type mice, 10 mg/kg/day IP for 10 days, 12 days after completion, FIG. 12A)?
Answer: slight decrease

Question: And the tumor weight (B16F10 melanoma cells; wild type mice, 10 mg/kg/day IP for 10 days, 12 days after completion)?
Answer: slight decrease

Question: What about the tumor volume (B16F10 melanoma cells; wild-type mice, inhibitor comparison, treated 10 days, day 12 after completion, FIG. 13A) of the same molecule?
Answer: did not significantly decrease

Question: What about the “tumor weight compared to control” value (B16F10 melanoma cells; wild-type mice, inhibitor comparison, treated 10 days, day 12 after completion, FIG. 13B) of the same molecule?
Answer: reduced the tumor weight to a small degree

Question: What about the “CD3+ T cells and CD8+ T cells in the tumor microenvironment” value ([3]; HPK1 knockout mice, FIG. 4B) of the same molecule?
Answer: increased

Question: And the “infiltration of macrophages and myeloid suppressor cells” value ([3]; HPK1 knockout mice, tumor microenvironment, FIG. 4B)?
Answer: decreased the infiltration

Question: What about the “number or function of B cells, CD3+ cells, CD4+ T cells, CD8+ T cells, CD11b+ cells, M-MDSC's, PMN-MDSC's, macrophages, neutrophils” value ([3]; wild-type mice, intra-tumoral, FIG. 4A) of the same molecule?
Answer: did not increase or decrease
